Measured values as given in publication PMC6214853, “Cytotoxic, tubulin-interfering and proapoptotic activities of 4′-methylthio-trans-stilbene derivatives, analogues of trans-resveratrol” (Cytotechnology, 2018).
Values joined by “and” are separate entries in the source; they are usually repeats but may differ in a detail not shown here. Equal values may be shown once.

What was measured:
A431 cells [1] = assay: MTT cell viability assay, A431; type: cell-based; conditions: Homo sapiens, A-431, A431, 48 h treatment
Method: (§1) Spontaneously immortalized human keratinocyte HaCaT cells were purchased from Cell Lines Service (CLS, Eppelheim, Germany). Human epidermoid carcinoma A431 cells were obtained from Deutsche Sammlung von Mikroorganismen und Zellkulturen (DSMZ, Braunschweig, Germany). MCF7 (ECACC 86012803) and MCF12A (ECACC10782) cells were purchased from the European Collection of Cell Cultures (Salisbury, Wiltshire, UK). MCF12A cells were cultured in 95% 1:1 mixture of DMEM and Ham’s F12 medium, 20 ng/mL human epidermal growth factor, 500 ng/mL hydrocortisone and 5% horse serum. The other cell lines were cultured in Dulbecco’s modified Eagle’s medium (DMEM) supplemented with 10% fetal bovine serum and 1% (v/v) antibiotics solution. Cells were incubated at 37 °C in an atmosphere consisting of 95% air and 5% CO2 in a humidified incubator until they reached 70% confluency. 1 × 10^6 cells were seeded in 40 mm ø culture dishes. After 24 h of preincubation in DMEM containing 5% of FBS, the cells were treated with resveratrol or its analogs, and the incubation was continued for a subsequent 24 h to assess apoptosis or cell cycle distribution. Then, the cells were harvested. Control cells were treated with DMSO, at a concentration of less than 0.1%.
(§2) The effect of resveratrol and 4′-methylthiostilbenes on cell viability was assessed with MTT assay according to the standard protocol described earlier (Zielińska-Przyjemska et al. [2015]). Briefly, the cells were seeded in 96-well plates at a density of 1 × 10^4 cells/well in 100 μL of growth medium. They were allowed to attach overnight and either resveratrol or the appropriate analog was then added to the culture medium at various concentrations (0–200 μM) for 48 h at 37 °C. The cells were subsequently incubated with MTT (0.5 mg/mL) solution for another 4 h. The water insoluble formazan crystals were solubilized in acidic isopropanol before the measurement of absorbance using a microplate reader (TECAN Infinite M200, TK Biotech, Warsaw, Poland) at 540 and 690 nm. All of the experiments were repeated three times, with at least three measurements per assay.

HaCaT cells [2] = assay: MTT cell viability assay, HaCaT; type: cell-based; conditions: Homo sapiens, 48 h treatment
Method: as §1, §2

MCF7 cells [3] = assay: MTT cell viability assay, MCF7; type: cell-based, human; conditions: MCF7, 48 h treatment
Method: as §1, §2

MCF12A cells [4] = assay: Flow cytometry cell cycle analysis, MCF12A; type: cell-based, human; conditions: 24 h incubation, PI flow cytometry
Method: as §1
(§3) The cells harvested after a 24 h incubation with the test compounds were washed with 1 mL of PBS and fixed with 70% ethanol. The ethanol was added dropwise to the cell pellet while vortexing to ensure fixation of all cells and minimizing clumping. After a 30 min incubation, the cells were washed twice in PBS, and 250 µL of a solution containing 50 µg/mL PI, 100 µg/mL RNase A (Sigma, St. Louis, MO, USA) in PBS was added to the pellet and incubated for 30 min at 37 °C in the dark. The stained cells were analyzed by FACSCanto Flow Cytometer (Becton–Dickinson). Camptothecin at a final concentration of 50 nM was used as a positive control. Data analysis and acquisition were performed using FACS Diva software (Becton–Dickinson).

[5] = test system: MCF12A, MCF7, HaCaT and A431 cell lines; assay: Annexin-V/propidium iodide assay; type: cell-based, human; conditions: 24 h incubation, all four cell lines
Method: as §1
Apoptosis and necrosis were detected using Annexin-V-FLUOS Staining Kit assay (Roche Diagnostics GmbH, Mannheim, Germany), according to the manufacturer’s instruction. After have been treated with test compounds for 24 h, the cells were transferred (1 × 10^6 cells in 100 µL of the solution) into 5 mL culture tubes followed by the addition of 2 µL of Annexin-V-Fluos and 2 µL PI. Camptothecin at a final concentration of 50 nM was used as a positive control. Samples were gently mixed and incubated for 15 min at RT (25 °C) in the dark. Fluorescence of cell surface (AV) and DNA-bound PI markers was analyzed with flow cytometry (Becton–Dickinson, San Jose, CA, USA) at 488 nm excitation wavelength, emission 518 and 617 nm for AV and PI, respectively.

MCF12A cells [6] = assay: MTT cell viability assay, MCF12A; type: cell-based; conditions: Homo sapiens, MCF-12A, 48 h treatment
Method: as §1, §2

purified porcine tubulin = target: T1, purified porcine tubulin (Sus scrofa, UniProt P02554); assay: Tubulin polymerization assay in vitro; type: biochemical; conditions: absorbance at steady state
T1 construct: purified porcine tubulin purchased from Cytoskeleton Inc; purchased Cytoskeleton Inc. (Denver, CO, USA)
T1 sequence (P02554 whole entry): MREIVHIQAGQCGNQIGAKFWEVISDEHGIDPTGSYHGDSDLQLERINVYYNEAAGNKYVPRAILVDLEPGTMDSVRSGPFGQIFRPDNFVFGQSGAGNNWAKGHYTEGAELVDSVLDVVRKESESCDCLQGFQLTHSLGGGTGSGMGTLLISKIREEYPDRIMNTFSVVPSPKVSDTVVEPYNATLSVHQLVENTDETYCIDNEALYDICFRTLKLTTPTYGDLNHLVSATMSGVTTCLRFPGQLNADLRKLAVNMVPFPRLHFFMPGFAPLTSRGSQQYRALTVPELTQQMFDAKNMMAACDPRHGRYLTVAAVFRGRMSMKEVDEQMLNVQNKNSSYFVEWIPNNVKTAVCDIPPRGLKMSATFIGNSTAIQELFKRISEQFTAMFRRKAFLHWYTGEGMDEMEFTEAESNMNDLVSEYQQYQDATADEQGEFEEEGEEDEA
T1 sequence (P02550 whole entry partner): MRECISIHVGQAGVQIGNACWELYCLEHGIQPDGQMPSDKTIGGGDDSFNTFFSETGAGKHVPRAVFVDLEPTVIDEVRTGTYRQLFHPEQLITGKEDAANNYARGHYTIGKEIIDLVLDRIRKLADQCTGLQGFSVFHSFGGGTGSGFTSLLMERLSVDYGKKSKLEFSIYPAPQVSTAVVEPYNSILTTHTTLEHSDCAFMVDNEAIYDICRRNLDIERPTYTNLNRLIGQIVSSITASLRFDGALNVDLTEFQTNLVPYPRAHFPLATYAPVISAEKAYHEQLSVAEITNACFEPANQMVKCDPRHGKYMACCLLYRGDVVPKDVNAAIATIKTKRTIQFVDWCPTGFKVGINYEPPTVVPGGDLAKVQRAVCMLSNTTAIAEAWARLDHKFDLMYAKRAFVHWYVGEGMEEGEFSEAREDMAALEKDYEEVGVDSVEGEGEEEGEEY
Method: Tubulin polymerization was assessed with the use of purified porcine tubulin purchased from Cytoskeleton Inc. (Denver, CO, USA) in accordance with a protocol recommended by the manufacturer. Tubulin was dissolved in a buffer containing: 80 mM PIPES pH 6.9, 2 mM MgCl2, 0.5 mM EGTA and 1 mM GTP, at a final concentration of 3 mg/mL and placed in a 96-well plate (0.3 mg per well). The polymerization reaction was started by increasing temperature from 4 to 37 °C upon transfer of the reaction mixture to a pre-warmed plate. The assembly of microtubules was monitored spectrophotometrically by measuring absorbance at 350 nm for 60 min, at a temperature of 37 °C. Paclitaxel was used as stabilizing positive control.

[7] = test system: MCF12A, MCF7, HaCaT and A431 cell lines; assay: TUNEL assay; type: cell-based, human; conditions: 24 h incubation, versus control
Method: as §1
TUNEL assay was applied to detect apoptotic cells using In Situ Cell Death Detection Kit (Roche Diagnostics, Indianapolis, IN, USA). Briefly, after incubation with the test compounds for 24 h, the cells were detached with a 0.5% trypsin–EDTA solution and collected. Cell suspensions were fixed with 4% paraformaldehyde and permeabilized with 0.1% Triton X-100 in 0.1% sodium citrate. After the TUNEL reaction mixture was added, cells were incubated for 1 h at 37 °C in a humidified chamber and samples were analyzed by FACSCanto Flow Cytometer (Becton–Dickinson). Camptothecin at a final concentration of 50 nM was used as a positive control.

MCF7 cells [8] = assay: Flow cytometry cell cycle analysis, MCF7; type: cell-based, human; conditions: MCF7, 24 h incubation, PI flow cytometry
Method: as §1, §3

tubulin = test system: tubulin; design: method as in Ma and coworkers ([2008]); conditions: ref Ma and coworkers ([2008]), cited from earlier work
MCF7 cells [9] = test system: MCF7 cells; design: method as in Androutsopoulos et al. [2011]; conditions: 96 h exposure; ref Androutsopoulos et al. [2011]; cited from earlier work
A431 cells [10] = assay: Flow cytometry cell cycle analysis, A431; type: cell-based, human; conditions: A431, 24 h incubation, PI flow cytometry
Method: as §1, with “Control cells were treated with DMSO, at a concentration of less than 0.1%.” left out
(§4) The cells harvested after a 24 h incubation with the test compounds were washed with 1 mL of PBS and fixed with 70% ethanol. […] The stained cells were analyzed by FACSCanto Flow Cytometer (Becton–Dickinson). […]

HaCaT cells [11] = assay: Flow cytometry cell cycle analysis, HaCaT; type: cell-based, human; conditions: 24 h incubation, PI flow cytometry
Method: as §1, with “Control cells were treated with DMSO, at a concentration of less than 0.1%.” left out
as §4

Structure (SMILES) | IC50 (A431 cells [1]) | IC50 (HaCaT cells [2]) | IC50 (MCF7 cells [3]; Homo sapiens, MCF7, 48 h) | Cell cycle effect (MCF12A cells [4]) | Apoptosis induction (Annexin-V/PI) [5] | IC50 (MCF12A cells [6]) | Tubulin polymerization, steady state level (purified porcine tubulin; 10 µM compound) | Number of TUNEL positive cells [7] | Cell cycle effect (MCF7 cells [8]) | also measured
COc1cccc(/C=C/c2ccc(SC)cc2)c1 [3-Methoxy-4′-methylthio-trans-stilbene] | 141 ± 2.8 µM | 183 ± 38.7 µM | 6.6 ± 3.7 µM |  |  |  |  |  |  | 
COc1cc(OC)c(OC)cc1/C=C/c1ccc(SC)cc1 [2,4,5-MTS, 2,4,5-Trimethoxy-4′-methylthio-trans-stilbene] | 22.6 ± 7.2 µM | 50.9 ± 13.3 µM | 5.1 ± 1.4 µM | G0/G1 phase arrest | induced apoptosis in all the cell lines | 10 ± 3 µM | 123.2 % of control and 123.2 ± 4.5 % of control | statistically significant increase in the number of TUNEL positive cells was observed only in HaCaT and A431 | G0/G1 phase arrest | Tubulin polymerization, steady state level (purified porcine tubulin; 5 µM compound): 106.3 ± 4.2 % of control
COc1ccc(/C=C/c2cc(OC)c(OC)c(OC)c2)cc1 [DMU-212, 3,4,5,4′-trans-tetramethoxystilbene] |  |  |  |  |  |  |  |  |  | Effect on microtubule polymerization (tubulin; DMU-212 at 2.5 μM versus paclitaxel at 10 μM): comparable to that of paclitaxel; Toxicity in MCF7 cells (MCF7 cells [9]): submicromolar toxicity
CC(=O)O[C@H]1C(=O)[C@@]2(C)[C@H]([C@H](OC(=O)c3ccccc3)[C@]3(O)C[C@H](OC(=O)[C@H](O)[C@@H](NC(=O)c4ccccc4)c4ccccc4)C(C)=C1C3(C)C)[C@]1(OC(C)=O)CO[C@@H]1C[C@@H]2O [Paclitaxel, reference compound] |  |  |  |  |  |  | 142.3 % of control and 142.3 ± 9.2 % of control |  |  | 
COc1cc(/C=C/c2ccc(SC)cc2)cc(OC)c1OC [3,4,5-MTS, 3,4,5-Trimethoxy-4′-methylthio-trans-stilbene] | 19.3 ± 5.5 µM | 10 ± 4.6 µM | 2.07 µM | G2/M phase arrest | induced apoptosis in all the cell lines | 25.7 ± 4.3 µM | 132.9 % of control and 132.9 ± 17.1 % of control | statistically significant increase in the number of TUNEL positive cells was observed only in HaCaT and A431 | G2/M phase arrest | Cell cycle effect (A431 cells [10]): G2/M phase arrest; Tubulin polymerization, steady state level (purified porcine tubulin; 5 µM compound): 113.4 ± 3.6 % of control; IC50 (MCF7 cells [3]): 2.1 ± 0.4 µM
COc1ccc(OC)c(/C=C/c2ccc(SC)cc2)c1 [2,5-Dimethoxy-4′-methylthio-trans-stilbene] | 47.1 ± 9 µM | 65 ± 24.5 µM | 10.2 ± 6.6 µM |  |  |  |  |  |  | 
COc1ccccc1/C=C/c1ccc(SC)cc1 [2-Methoxy-4′-methylthio-trans-stilbene] | 241 ± 10 µM | 106 ± 9.3 µM | 27.3 ± 12.4 µM |  |  |  |  |  |  | 
COc1cc(/C=C/c2ccc(SC)cc2)cc(OC)c1 [3,5-Dimethoxy-4′-methylthio-trans-stilbene] | 45.4 ± 7.2 µM | 25.4 ± 13.9 µM | 4.8 ± 3.4 µM |  |  |  |  |  |  | 
Oc1ccc(/C=C/c2cc(O)cc(O)c2)cc1 [Resveratrol, trans-3,4′,5-trihydroxystilbene] | 49.4 ± 3.8 µM | 85.2 ± 29.2 µM | 24.6 ± 3.8 µM | blocked the cell cycle in S-phase | apoptosis was evident in all the tested cell lines | 93.5 ± 12.1 µM |  | statistically significant in all the cell lines studied | blocked the cell cycle in S-phase | Cell cycle effect (HaCaT cells [11]): arrested in G0/G1-phase; Cell cycle effect (A431 cells [10]): blocked the cell cycle in S-phase; Effect on tubulin polymerization (tubulin): does not influence tubulin polymerization
COc1cccc(/C=C/c2ccc(SC)cc2)c1OC [2,3-Dimethoxy-4′-methylthio-trans-stilbene] | 157 ± 3 µM | 51.8 ± 7.3 µM | 10.6 ± 6.1 µM |  |  |  |  |  |  | 
